Laboratory results reported in publication PMC8909834, “An Orally Bioavailable and Highly Efficacious Inhibitor of CDK9/FLT3 for the Treatment of Acute Myeloid Leukemia” (Cancers, 2022).

Legend:
PAK1 = biological target: T1, PAK1 (Homo sapiens, UniProt Q13153); assay: Kinase Hotspot radiolabel assay; type: biochemical; conditions: read-out: % Residual Activity
T1 construct: purchased Reaction Biology Corporation (Kinase HotSpot)
Outline: (§1)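 1 µM cpd; 369-kinase radiolabel Hotspot panel; Ki run for hits >90% inhibition.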

MRCKa/CDC42BPA = biological target: T2, MRCKa/CDC42BPA (Homo sapiens, UniProt Q5VT25); assay: Kinase Hotspot radiolabel assay; type: biochemical; conditions: read-out: % Residual Activity
T2 construct: purchased Reaction Biology Corporation (Kinase HotSpot)
Outline: as §1

MKK6 = biological target: T3, MKK6 (Homo sapiens, UniProt P52564); assay: Kinase Hotspot radiolabel assay; type: biochemical; conditions: read-out: % Residual Activity
T3 construct: purchased Reaction Biology Corporation (Kinase HotSpot)
T3 sequence (P52564 whole entry): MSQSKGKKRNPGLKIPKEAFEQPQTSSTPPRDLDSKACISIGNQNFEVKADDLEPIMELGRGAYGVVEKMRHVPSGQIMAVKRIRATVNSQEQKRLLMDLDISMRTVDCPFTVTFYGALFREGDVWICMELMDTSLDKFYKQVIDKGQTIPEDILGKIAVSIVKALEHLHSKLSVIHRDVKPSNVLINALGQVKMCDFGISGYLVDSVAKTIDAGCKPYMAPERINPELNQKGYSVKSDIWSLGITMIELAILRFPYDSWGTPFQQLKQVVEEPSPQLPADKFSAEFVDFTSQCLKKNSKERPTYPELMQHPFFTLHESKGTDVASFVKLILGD
Outline: as §1

JNK1 = biological target: T4, JNK1 (Homo sapiens, UniProt P45983); assay: Kinase Hotspot radiolabel assay; type: biochemical; conditions: read-out: % Residual Activity
T4 construct: purchased Reaction Biology Corporation (Kinase HotSpot)
T4 sequence (P45983 whole entry): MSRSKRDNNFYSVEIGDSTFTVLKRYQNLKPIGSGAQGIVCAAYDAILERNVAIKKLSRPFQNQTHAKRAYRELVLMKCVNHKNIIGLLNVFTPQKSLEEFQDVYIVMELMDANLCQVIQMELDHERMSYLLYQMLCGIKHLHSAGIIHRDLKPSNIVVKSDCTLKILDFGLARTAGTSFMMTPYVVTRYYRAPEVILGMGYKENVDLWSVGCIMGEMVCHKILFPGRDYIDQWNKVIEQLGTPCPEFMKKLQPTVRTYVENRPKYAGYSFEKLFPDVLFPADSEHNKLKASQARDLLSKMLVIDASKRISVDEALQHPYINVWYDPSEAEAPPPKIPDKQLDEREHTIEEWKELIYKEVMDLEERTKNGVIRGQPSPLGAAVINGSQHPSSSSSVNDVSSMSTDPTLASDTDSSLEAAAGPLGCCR
Outline: as §1

PHKg2 = biological target: T5, PHKg2 (Homo sapiens, UniProt P15735); assay: Kinase Hotspot radiolabel assay; type: biochemical; conditions: read-out: % Residual Activity
T5 construct: purchased Reaction Biology Corporation (Kinase HotSpot)
T5 sequence (P15735 whole entry): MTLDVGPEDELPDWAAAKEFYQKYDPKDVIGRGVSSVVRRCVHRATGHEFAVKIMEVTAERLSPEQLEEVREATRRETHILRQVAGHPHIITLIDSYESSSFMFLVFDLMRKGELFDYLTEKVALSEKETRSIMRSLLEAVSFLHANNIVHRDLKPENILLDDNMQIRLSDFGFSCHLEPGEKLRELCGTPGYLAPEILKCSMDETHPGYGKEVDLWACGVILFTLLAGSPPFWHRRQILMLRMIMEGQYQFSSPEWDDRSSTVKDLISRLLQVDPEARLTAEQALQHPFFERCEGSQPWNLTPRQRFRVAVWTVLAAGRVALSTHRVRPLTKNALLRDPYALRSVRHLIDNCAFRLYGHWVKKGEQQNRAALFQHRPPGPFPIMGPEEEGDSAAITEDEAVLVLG
Outline: as §1

SRMS = biological target: T6, SRMS (Homo sapiens, UniProt Q9H3Y6); assay: Kinase Hotspot radiolabel assay; type: biochemical; conditions: read-out: % Residual Activity
T6 construct: purchased Reaction Biology Corporation (Kinase HotSpot)
T6 sequence (Q9H3Y6 whole entry): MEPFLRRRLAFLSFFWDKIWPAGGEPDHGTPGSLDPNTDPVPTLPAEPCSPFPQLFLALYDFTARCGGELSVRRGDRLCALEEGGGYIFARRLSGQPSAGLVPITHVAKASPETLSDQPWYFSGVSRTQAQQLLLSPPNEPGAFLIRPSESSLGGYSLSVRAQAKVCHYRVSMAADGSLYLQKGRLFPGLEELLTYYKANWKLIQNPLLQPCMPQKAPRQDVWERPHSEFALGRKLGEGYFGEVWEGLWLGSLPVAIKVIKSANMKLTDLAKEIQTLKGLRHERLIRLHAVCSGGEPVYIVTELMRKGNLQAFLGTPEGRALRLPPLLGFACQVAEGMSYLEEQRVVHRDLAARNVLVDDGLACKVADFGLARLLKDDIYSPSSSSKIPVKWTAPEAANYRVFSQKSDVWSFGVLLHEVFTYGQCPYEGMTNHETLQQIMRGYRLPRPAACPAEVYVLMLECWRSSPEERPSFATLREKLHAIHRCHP
Outline: as §1

LCK2/ICK = biological target: T7, LCK2/ICK (Homo sapiens, UniProt Q9UPZ9); assay: Kinase Hotspot radiolabel assay; type: biochemical; conditions: read-out: % Residual Activity
T7 construct: purchased Reaction Biology Corporation (Kinase HotSpot)
T7 sequence (Q9UPZ9 whole entry): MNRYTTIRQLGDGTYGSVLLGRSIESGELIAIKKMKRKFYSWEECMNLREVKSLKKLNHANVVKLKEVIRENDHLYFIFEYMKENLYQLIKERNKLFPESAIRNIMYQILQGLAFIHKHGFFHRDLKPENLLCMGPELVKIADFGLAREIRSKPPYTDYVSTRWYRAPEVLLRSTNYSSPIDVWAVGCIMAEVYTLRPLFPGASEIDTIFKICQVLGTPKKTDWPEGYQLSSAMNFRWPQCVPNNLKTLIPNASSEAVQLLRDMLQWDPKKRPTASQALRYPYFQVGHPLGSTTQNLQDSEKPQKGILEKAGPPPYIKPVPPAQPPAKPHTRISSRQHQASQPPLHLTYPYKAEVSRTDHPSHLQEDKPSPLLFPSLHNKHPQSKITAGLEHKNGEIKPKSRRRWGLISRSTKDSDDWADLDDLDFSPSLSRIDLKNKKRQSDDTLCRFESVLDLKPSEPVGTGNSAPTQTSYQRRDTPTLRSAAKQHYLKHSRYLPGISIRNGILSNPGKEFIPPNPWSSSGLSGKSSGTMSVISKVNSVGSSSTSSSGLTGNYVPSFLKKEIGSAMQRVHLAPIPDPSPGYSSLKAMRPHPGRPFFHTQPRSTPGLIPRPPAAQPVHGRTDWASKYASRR
Outline: as §1

PKAcb = biological target: T8, PKAcb (Homo sapiens, UniProt P22694); assay: Kinase Hotspot radiolabel assay; type: biochemical; conditions: read-out: % Residual Activity
T8 construct: purchased Reaction Biology Corporation (Kinase HotSpot)
Outline: as §1

IR = biological target: T9, IR (Homo sapiens, UniProt P06213); assay: Kinase Hotspot radiolabel assay; type: biochemical; conditions: read-out: % Residual Activity
T9 construct: purchased Reaction Biology Corporation (Kinase HotSpot)
T9 sequence (P06213 28-1382): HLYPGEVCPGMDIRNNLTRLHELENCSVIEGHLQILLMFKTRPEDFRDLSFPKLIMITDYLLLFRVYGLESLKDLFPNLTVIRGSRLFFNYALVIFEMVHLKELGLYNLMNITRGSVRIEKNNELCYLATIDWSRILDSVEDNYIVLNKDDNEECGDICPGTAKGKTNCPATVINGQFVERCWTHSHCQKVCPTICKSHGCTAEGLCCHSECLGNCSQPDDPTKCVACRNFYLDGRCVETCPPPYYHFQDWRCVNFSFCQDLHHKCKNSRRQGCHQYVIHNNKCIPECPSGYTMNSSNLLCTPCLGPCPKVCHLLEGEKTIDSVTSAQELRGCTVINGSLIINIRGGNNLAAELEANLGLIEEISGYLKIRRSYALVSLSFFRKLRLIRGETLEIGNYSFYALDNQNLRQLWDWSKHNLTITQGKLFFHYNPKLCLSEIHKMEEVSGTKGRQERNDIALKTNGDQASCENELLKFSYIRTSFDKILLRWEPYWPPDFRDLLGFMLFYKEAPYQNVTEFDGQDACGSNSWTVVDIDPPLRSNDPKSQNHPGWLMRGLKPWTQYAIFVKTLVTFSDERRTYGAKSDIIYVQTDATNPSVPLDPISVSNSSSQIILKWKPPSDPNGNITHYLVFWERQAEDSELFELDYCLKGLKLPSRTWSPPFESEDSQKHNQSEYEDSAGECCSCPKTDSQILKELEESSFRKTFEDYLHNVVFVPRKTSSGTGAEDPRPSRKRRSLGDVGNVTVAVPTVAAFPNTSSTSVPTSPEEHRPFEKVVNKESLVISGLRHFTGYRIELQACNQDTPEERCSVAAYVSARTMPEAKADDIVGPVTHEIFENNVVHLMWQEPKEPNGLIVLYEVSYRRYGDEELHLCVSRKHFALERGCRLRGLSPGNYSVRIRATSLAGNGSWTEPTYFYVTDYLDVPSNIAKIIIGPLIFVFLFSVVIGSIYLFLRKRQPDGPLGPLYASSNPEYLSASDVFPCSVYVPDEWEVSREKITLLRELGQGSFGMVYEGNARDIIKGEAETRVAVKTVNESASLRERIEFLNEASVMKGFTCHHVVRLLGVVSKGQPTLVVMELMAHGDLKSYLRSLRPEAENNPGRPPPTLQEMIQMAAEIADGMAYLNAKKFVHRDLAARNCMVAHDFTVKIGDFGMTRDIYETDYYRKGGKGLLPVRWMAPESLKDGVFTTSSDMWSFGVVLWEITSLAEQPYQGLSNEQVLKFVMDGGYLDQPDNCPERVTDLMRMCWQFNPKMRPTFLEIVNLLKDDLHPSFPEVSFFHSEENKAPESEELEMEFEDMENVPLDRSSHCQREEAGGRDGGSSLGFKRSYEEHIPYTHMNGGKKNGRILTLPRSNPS
Outline: as §1

Blood to plasma ratio = type: in vitro ADME; conditions: mouse, in mice
[1] = Maximum tolerated dose in non-tumor bearing mice; type: in vivo
Protocol: In vivo efficacy of CDDD11-8 against AML xenografts in mice. The maximum tolerated dose (MTD) of CDDD11-8 was determined in non-tumor bearing female BALB/c nude (nu/nu) mice (n = 3). […] Our proposed maximum dose of CDDD11-8 was 150 mg/kg once daily for seven days. […] All the animals received 28 doses of vehicle or CDDD11-8 at 75 or 125 mg/kg strength. […] The tumor regression was maintained over the dosing period. On day 29, the tumors in the 75 mg/kg treated group had recommenced growth to variable degrees (Supplementary Table S3). […] On day 29, one and three mice from the 75 and 125 mg/kg CDDD11-8 treated groups, respectively, had unmeasurable tumor size (zero tumor volume).

T1 sequence (Q13153 whole entry): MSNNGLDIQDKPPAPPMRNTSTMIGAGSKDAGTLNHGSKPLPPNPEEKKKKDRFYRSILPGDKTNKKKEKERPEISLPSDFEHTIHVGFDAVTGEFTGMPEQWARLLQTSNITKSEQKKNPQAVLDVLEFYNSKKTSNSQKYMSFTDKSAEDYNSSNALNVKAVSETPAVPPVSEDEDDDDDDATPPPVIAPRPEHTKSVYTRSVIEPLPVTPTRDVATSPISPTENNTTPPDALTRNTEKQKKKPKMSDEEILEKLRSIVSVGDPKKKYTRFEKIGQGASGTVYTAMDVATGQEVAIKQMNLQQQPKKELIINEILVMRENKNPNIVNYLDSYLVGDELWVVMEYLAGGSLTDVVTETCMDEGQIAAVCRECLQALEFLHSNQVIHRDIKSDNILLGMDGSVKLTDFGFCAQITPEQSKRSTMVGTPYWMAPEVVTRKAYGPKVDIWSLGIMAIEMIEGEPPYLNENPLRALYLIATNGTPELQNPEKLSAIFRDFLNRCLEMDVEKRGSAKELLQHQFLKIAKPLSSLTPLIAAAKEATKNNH

## Cc1cnc(N[C@H]2CC[C@H](N)CC2)nc1-c1cnc2ccc(-c3ccccc3)cn12 [CDDD11-8]
PAK1
  remaining activity at 1 µM: 106%
MRCKa/CDC42BPA
  remaining activity at 1 µM: 97.7%
MKK6
  remaining activity at 1 µM: 95.7%
JNK1
  remaining activity at 1 µM: 105%
PHKg2
  remaining activity at 1 µM: 93.9%
SRMS
  remaining activity at 1 µM: 101%
LCK2/ICK
  remaining activity at 1 µM: 62.4%
PKAcb
  remaining activity at 1 µM: 89.6%
IR
  remaining activity at 1 µM: 101%
Blood to plasma ratio
  blood plasma ratio: 0.71
[1]; female, BALB/c nude (nu/nu), mouse, in vivo, oral, once daily for seven days
  MTD at 7 days: 150 mg/kg
[1]; oral 200 mg/kg, one mouse after five days, the rest after seven days
  body weight loss: > 15%
[1]; up to oral 150 mg/kg once daily for 7 days
  clinical signs of toxicity / weight loss: no overt clinical signs of toxicity or significant weight loss
